Experimental data taken from ChEMBL document CHEMBL1201862, “PubChem BioAssay data set” (2004).
Active and inactive are the calls of the source.

Assays:
[1] = molecular target: Glycogen synthase kinase-3 alpha (Homo sapiens, UniProt P49840); assay: Inhibition of Human GSK-3 alpha Activity Measured in Biochemical System Using Microfluidics - 2063-06_Inhibitor_Dose_DryPowder_Activity_Set2. [Related pubchem assays (depositor defined):AID2709]
[2] = molecular target: Cyclin-dependent kinase 5/CDK5 activator 1 (Homo sapiens, UniProt Q00535); assay: CDK5-p25 kinase inhibitors, specificity check, dose response, selectivity assay for GSK-3 alpha inhibitor project, biochemical, microfluidic mobility shift, dry powder (AID 588430)
[3] = molecular target: Glycogen synthase kinase-3 beta (Homo sapiens, UniProt P49841); assay: Inhibition of Human GSK-3 beta Activity Measured in Biochemical System Using Microfluidics - 2063-05_Inhibitor_Dose_DryPowder_Activity_Set2. [Related pubchem assays (depositor defined):AID2709]
[4] = inhibitors of firefly luciferase expression or activity, dose response, H4 neuroglioma cells, luminescence (AID 1990); assay type: functional, cell-based
[5] = inhibitors of SNCA 5'UTR-driven reporter translation, confirmation, H4 neuroglioma cells, luminescence (AID 1988); assay type: functional, cell-based
[6] = molecular target: T1, Aryl hydrocarbon receptor (Homo sapiens, UniProt P35869); assay: Luminescence-based cell-based high throughput dose response assay for activators of the Aryl Hydrocarbon Receptor (AHR). [Related pubchem assays: 2796 (Primary screen (AHR activators in singlicate)), 2845 (Confirmation screen (AHR activators in triplicate)), 434939 (Counterscreen (PXR activators in triplicate)), 2804 (Summary (AHR activators))]; assay type: ADME
T1 sequence (P35869 whole entry): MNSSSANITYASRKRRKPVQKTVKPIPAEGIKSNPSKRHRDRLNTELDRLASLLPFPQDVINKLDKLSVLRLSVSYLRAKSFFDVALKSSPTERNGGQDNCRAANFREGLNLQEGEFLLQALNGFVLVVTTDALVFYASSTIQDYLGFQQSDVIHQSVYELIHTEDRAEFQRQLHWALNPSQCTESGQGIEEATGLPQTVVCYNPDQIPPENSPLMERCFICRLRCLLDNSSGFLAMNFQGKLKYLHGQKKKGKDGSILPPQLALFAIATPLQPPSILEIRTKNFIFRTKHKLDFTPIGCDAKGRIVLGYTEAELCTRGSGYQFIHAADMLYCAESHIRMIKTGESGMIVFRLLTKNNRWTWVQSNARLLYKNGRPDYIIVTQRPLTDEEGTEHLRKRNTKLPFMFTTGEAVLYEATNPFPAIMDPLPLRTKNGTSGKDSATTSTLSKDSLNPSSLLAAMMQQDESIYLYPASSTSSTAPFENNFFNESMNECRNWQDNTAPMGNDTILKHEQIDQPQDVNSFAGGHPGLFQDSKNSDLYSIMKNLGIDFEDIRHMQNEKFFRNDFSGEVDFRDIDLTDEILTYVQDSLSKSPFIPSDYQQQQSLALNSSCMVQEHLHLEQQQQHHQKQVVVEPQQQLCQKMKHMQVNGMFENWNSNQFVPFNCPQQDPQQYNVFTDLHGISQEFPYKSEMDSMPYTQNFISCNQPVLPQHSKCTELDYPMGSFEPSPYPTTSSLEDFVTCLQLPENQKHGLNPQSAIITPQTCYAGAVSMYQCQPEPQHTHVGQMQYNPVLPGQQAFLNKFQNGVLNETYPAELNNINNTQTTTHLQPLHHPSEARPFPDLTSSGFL

[7] = Luminescence Cell-Based Dose Response HTS to Identify Inhibitors of 5'UTR Stem-Loop Driven Prion Protein mRNA Translation in H4 Neuroglioblastoma Cells. [Related pubchem assays: 1827 (Project Summary), 1813 (Primary HTS)]; assay type: functional
[8] = M. tuberculosis growth inhibition in 7H9, dose response, 7H9 media, purified and synthesized samples, set 3 (AID 504646); assay type: functional
[9] = A High Throughput Confirmatory Assay used to Identify Novel Compounds that Inhibit Mycobacterium Tuberculosis in the absence of Glycerol using Purified and Synthesized Compounds (3).; assay type: functional
[10] = molecular target: T2, Melanin-concentrating hormone receptor 1 (Homo sapiens, UniProt Q99705); assay: Late-stage fluorescence-based counterscreen for antagonists of the G-protein coupled receptor 7 (GPR7): cell-based dose response assay to identify antagonists of the melanin-concentrating hormone receptor 1 (MCHR1) Set 5.; assay type: functional
[11] = molecular target: T3, Neuropeptides B/W receptor type 1 (Homo sapiens, UniProt P48145); assay: GPR7 antagonist potency, late-stage follow-up, cell-based, fluorescence, dose response, set 5 (AID 588566); assay type: functional
T3 sequence (P48145 whole entry): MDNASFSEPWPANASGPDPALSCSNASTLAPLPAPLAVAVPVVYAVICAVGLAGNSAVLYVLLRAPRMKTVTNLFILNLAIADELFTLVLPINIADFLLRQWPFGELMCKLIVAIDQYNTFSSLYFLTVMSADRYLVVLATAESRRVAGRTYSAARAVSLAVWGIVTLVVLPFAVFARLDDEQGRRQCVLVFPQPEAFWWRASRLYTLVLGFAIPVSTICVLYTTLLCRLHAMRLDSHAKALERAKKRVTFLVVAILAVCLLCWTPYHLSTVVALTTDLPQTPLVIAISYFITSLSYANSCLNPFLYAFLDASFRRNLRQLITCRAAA

[12] = molecular target: T3, Neuropeptides B/W receptor type 1; assay: GPR7 antagonist potency, late-stage follow-up, cell-based, fluorescence, dose response, set 6 (AID 588583); assay type: functional
[13] = molecular target: T2, Melanin-concentrating hormone receptor 1; assay: Late-stage fluorescence-based counterscreen for antagonists of the G-protein coupled receptor 7 (GPR7): cell-based dose response assay to identify antagonists of the melanin-concentrating hormone receptor 1 (MCHR1) Set 6.; assay type: functional
[14] = molecular target: DNA dC->dU-editing enzyme APOBEC-3A (Homo sapiens, UniProt P31941); assay: SAR analysis of small molecule inhibitors of APOBEC3A DNA Deaminase via a fluorescence-based single-stranded DNA deaminase assay.; assay type: functional; settings: read-out: IC50_Mean
[15] = molecular target: DNA dC->dU-editing enzyme APOBEC-3G (Homo sapiens, UniProt Q9HC16); assay: APOBEC3G deaminase inhibitors, SAR follow-up, biochemical, fluorescence, single-stranded DNA substrate (AID 602136); assay type: functional; settings: read-out: IC50_Mean
[16] = molecular target: T4, High affinity choline transporter 1 (Homo sapiens, UniProt Q9GZV3); assay: CHT inhibitors, dose response, cell-based, 5-point CRC, membrane potential dye (AID 504840); assay type: functional
T4 sequence (Q9GZV3 whole entry): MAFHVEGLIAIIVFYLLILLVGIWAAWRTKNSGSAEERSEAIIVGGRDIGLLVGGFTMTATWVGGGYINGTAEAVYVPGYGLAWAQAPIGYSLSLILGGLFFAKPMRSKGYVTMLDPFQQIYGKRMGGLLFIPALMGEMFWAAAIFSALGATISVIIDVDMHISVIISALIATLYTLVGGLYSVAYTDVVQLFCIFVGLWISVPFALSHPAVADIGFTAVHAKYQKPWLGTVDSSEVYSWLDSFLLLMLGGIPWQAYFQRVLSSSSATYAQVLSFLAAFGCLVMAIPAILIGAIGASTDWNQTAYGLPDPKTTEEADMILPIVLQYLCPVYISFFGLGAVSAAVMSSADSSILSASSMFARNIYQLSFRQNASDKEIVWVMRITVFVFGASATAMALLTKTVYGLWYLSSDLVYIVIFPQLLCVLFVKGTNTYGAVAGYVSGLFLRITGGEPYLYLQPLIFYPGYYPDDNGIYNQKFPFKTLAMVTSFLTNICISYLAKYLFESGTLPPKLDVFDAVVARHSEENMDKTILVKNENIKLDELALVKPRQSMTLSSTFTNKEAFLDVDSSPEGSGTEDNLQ

[17] = molecular target: T4, High affinity choline transporter 1; assay: CHT inhibitors, dose response, cell-based, 10-point CRC, membrane potential dye (AID 588401); assay type: functional;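 further: membrane potential dye fluorescence of choline-evoked depolarization via CHT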

T2 sequence (Q99705 whole entry): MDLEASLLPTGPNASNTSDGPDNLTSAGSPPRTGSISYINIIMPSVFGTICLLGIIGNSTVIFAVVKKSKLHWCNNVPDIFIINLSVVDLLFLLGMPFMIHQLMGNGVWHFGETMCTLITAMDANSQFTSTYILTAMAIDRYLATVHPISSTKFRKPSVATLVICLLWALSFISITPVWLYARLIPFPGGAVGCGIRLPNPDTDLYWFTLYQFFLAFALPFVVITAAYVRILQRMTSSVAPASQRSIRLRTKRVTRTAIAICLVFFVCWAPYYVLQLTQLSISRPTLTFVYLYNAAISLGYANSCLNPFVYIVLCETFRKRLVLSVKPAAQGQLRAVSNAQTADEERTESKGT
Chain of Glycogen synthase kinase-3 alpha (P49840 whole entry): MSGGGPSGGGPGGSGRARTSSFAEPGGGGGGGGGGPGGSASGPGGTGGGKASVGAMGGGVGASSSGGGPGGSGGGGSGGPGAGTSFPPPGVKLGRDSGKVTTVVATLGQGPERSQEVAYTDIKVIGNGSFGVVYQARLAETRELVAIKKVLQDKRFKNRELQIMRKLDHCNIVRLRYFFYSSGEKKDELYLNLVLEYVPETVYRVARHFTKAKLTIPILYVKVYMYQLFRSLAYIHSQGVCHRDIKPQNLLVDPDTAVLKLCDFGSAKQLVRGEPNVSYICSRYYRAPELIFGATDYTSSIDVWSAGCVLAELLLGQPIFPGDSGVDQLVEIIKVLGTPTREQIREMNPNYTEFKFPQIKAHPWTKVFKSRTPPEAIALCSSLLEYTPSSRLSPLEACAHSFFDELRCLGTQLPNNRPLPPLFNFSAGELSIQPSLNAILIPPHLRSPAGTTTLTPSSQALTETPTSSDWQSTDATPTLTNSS
Chain of DNA dC->dU-editing enzyme APOBEC-3G (Q9HC16 whole entry): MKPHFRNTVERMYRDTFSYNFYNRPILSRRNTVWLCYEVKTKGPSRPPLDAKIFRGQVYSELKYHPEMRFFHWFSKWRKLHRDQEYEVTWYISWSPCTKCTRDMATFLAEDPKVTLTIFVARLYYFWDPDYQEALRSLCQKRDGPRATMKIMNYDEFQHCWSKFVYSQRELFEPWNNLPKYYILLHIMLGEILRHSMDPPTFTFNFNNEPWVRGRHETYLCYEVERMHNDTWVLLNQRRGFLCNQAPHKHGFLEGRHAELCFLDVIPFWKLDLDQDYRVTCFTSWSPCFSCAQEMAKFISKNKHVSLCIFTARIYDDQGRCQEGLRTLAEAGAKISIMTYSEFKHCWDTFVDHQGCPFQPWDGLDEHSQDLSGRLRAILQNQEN
Chain of Cyclin-dependent kinase 5/CDK5 activator 1 (Q00535 whole entry): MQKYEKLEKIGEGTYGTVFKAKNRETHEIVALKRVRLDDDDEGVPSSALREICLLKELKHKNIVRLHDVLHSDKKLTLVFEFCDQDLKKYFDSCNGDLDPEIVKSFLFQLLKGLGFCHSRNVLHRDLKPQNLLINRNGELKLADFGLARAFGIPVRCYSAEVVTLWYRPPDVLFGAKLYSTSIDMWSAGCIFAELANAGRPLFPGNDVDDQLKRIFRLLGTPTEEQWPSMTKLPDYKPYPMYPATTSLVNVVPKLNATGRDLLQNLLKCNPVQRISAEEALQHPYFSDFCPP
Chain of Cyclin-dependent kinase 5/CDK5 activator 1 (Q15078 whole entry, further chain): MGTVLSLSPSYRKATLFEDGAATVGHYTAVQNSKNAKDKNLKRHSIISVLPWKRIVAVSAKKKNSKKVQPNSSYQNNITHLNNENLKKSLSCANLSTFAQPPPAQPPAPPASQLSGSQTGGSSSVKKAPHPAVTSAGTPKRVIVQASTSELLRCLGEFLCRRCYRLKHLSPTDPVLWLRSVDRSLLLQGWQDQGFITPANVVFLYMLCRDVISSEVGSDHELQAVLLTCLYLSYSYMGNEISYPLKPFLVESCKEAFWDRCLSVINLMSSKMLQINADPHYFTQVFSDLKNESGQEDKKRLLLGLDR
Chain of Glycogen synthase kinase-3 beta (P49841 whole entry): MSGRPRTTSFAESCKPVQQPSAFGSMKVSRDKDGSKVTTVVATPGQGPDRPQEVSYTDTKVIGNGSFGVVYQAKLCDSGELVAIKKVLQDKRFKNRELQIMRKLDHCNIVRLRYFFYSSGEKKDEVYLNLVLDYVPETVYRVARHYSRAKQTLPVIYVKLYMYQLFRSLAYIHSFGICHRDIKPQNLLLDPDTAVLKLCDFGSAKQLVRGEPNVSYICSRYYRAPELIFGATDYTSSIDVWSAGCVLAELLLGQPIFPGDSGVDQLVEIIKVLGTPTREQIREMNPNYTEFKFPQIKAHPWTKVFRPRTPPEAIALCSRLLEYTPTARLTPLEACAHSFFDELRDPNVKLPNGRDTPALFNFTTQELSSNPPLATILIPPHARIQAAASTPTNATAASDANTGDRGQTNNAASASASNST
Chain of DNA dC->dU-editing enzyme APOBEC-3A (P31941 whole entry): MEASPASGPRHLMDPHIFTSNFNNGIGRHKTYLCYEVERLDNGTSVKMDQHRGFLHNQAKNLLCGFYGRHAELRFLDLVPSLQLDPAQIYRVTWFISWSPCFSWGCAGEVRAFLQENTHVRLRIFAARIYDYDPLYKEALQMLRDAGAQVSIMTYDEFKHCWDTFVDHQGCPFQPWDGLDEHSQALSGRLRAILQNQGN

SMILES: COc1ccccc1Nc1nc(NCCO)nc(N)c1[N+](=O)[O-]
- AC50 [1]: 0.276 µM (active)
- AC50 [2]: 6.14 µM (active)
- AC50 [3]: 0.134 µM (active)
- EC50 [4]: 10.9 µM (active)
- EC50 [5]: 11.3 µM (active)
- EC50 [6]: 1.2 µM (active)
- EC50 [7]: 0.118 µM (active)

SMILES: O=C(c1ccc(CNc2c(N3CCCC3)c(=O)c2=O)cc1)N1CCN(C2CCCCC2)CC1
- IC50 [8]: > 25 µM (active)
- IC50 [9]: > 25 µM (active)

SMILES: COc1ccc(Oc2c(Cl)cnn(Cc3ccc4c(c3)C(=O)c3ccccc3C4=O)c2=O)cc1
- IC50 [10]: > 20 µM (inactive)
- IC50 [11]: > 20 µM (inactive)

SMILES: Cc1ccc(C)c(C(C#N)c2c(Cl)cnn(Cc3cccc4ccccc34)c2=O)c1 (configuration not stated)
- IC50 [12]: 3.14 µM (active)
- IC50 [13]: 3.14 µM (active)

SMILES: COc1ccc2c(Cl)c(-c3nnc4n3CCC4)sc2c1
- IC50 [14]: > 99 µM (inactive)
- IC50 [15]: > 99 µM (inactive)

SMILES: C=CCc1ccc(O)c(-c2cc(CC=C)ccc2O)c1 [MAGNOLOL]
- IC50 [16]: 2.89 µM (active)
- IC50 [17]: 1.7 µM (active)
